These results are taken from patent EP1175509B1 (priority 1999, dated 2000).

Assay type in all cases: biochemical
Conditions in all cases: pH 8

One test addresses T1, FBS-AChE, soluble (Bos taurus, UniProt P23795).
T1 sequence (P23795 31-613): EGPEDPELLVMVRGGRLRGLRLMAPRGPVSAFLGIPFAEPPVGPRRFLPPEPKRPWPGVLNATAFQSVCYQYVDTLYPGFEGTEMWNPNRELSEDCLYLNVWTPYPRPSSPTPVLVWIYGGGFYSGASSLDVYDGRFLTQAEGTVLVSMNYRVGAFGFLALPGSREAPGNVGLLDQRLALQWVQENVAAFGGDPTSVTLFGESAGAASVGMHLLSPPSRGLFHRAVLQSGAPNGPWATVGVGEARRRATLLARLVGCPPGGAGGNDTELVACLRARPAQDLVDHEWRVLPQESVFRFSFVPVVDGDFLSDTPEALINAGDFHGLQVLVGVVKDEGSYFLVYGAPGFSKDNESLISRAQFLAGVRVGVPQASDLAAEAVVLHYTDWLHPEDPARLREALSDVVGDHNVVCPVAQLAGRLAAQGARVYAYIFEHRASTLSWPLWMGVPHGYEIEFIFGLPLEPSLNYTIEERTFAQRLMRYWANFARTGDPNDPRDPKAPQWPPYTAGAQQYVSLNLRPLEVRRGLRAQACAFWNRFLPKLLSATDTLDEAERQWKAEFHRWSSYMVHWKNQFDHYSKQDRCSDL

The target of test [1] is T2, FBS-AChE, immobilized (polyurethane coupled) (Bos taurus, UniProt P23795).
T2 sequence (P23795 31-613): T1 sequence (P23795 31-613)

Test [2] addresses Equine-BChE, immobilized (polyurethane coupled) (Equus caballus, UniProt P81908).
The target of another test is Equine-BChE, soluble (Equus caballus, UniProt P81908).
Sequence of Equine-BChE, soluble (P81908 whole entry): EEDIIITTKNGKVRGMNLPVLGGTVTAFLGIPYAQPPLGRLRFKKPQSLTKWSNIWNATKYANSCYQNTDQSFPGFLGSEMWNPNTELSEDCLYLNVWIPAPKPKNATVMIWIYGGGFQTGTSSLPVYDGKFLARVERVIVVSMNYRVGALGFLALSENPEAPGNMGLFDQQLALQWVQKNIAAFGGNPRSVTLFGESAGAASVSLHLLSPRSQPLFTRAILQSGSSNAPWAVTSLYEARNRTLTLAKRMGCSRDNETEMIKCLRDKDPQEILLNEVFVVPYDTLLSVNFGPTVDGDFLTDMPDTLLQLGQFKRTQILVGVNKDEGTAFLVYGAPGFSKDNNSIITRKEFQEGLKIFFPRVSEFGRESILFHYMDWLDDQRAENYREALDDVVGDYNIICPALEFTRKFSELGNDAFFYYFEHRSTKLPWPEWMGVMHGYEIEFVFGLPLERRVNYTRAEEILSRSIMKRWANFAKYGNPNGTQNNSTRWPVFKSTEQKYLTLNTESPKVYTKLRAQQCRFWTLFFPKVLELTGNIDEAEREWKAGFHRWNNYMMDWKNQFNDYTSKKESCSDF

Sequence of Equine-BChE, immobilized (polyurethane coupled) (P81908 whole entry): as above

Regarding `CC(=O)SCC[N+](C)(C)C.[I-]` [acetylthiocholine, Acetylthiocholine iodide], on FBS-AChE, soluble, the Kcat turned out to be 4670 s⁻¹; the Km (as a rule, the substrate concentration at which the rate is half of its maximum) came out at 119 µM; the Kss was 18 mM. For the same molecule, in test [1], the Kcat came to 983 s⁻¹, the Michaelis constant (Km) was 1090 µM and the Kss turned out to be 22 mM.

For `CCCC(=O)SCC[N+](C)(C)C.[I-]` [butyrylthiocholine, S-butyrylthiocholine iodide], in test [2], the Kcat was found to be 300 s⁻¹, the Km is 1200 µM and the Kss was 16 mM. Further, on Equine-BChE, soluble, the B is recorded as 1.8, the Kcat was determined as 517 s⁻¹, the Km was 127 µM and the Kss worked out at 1.5 mM.
